{"source": "patent US20230107642A1", "about": "(Erasca, Inc., priority 2020, published 2023)"}
{"target": "T1, Cys12 of the KRAS 4B G12C protein (Homo sapiens, UniProt P01116, G12C)", "T1 construct": "This protein contained 188 amino acids in total, including an N-terminal 6-Histidine tag; made in house; host or cells: E. coli BL21", "test": "In vitro covalent adduct formation (CAF) assay, LC-MS intact mass", "type": "binding", "details": "10 uM compound, 60 min", "method_in_brief": "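Percent covalent modification from intact-mass LC-MS, by relative free versus adducted protein (adducts within 1 Da of expected mass). Reaction: 10 μM compound with 5 μM E. coli-expressed, GDP-exchanged KRAS 4B G12C in TBS pH 7.4, 4% DMSO, 1 h at 22° C.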", "units": {"% CAF 10 uM @ 60 min": "%"}}
{"compound": "C=CC(=O)N1CCN(c2nc(=O)n3c4c(c(-c5ccc(F)c(Cl)c5)c(C(F)(F)F)cc24)SC[C@@H]3COCOC)CC1", "note": "[Example 1362, (S)-7-(4-acryloylpiperazin-1-yl)-10-(3-chloro-4-fluorophenyl)-3-((methoxymethoxy)methyl)-9-(trifluoromethyl)-2,3-dihydro-5H-[1,4]thiazino[2,3,4-ij]quinazolin-5-one]", "% CAF 10 uM @ 60 min": 96.2}
{"compound": "C=CC(=O)N1C[C@H](C)N(c2nc(=O)n3c4c(c(-c5ccc(F)c(Cl)c5)c(C(F)(F)F)cc24)SC[C@@H]3COCOC)C[C@H]1C", "note": "[Example 1363, (S)-7-((2S,5R)-4-acryloyl-2,5-dimethylpiperazin-1-yl)-10-(3-chloro-4-fluorophenyl)-3-((methoxymethoxy)methyl)-9-(trifluoromethyl)-2,3-dihydro-5H-[1,4]thiazino[2,3,4-ij]quinazolin-5-one]", "% CAF 10 uM @ 60 min": 92.1}
{"compound": "[2H]C([2H])=C([2H])C(=O)N1[C@H](C)CN(c2nc(=O)n3c4c(c(-c5ccc(F)cc5)c(C(F)(F)F)cc24)SC[C@@H]3COC)C[C@@H]1C", "note": "[Example 1366]", "% CAF 10 uM @ 60 min": 96.8}
{"compound": "C=CC(=O)N1[C@H](C)CN(c2nc(=O)n3c4c(c(-c5c(F)cccc5F)c(C(F)(F)F)cc24)SC[C@@H]3COC)C[C@@H]1C", "note": "[Example 1371, (S)-7-((3S,5R)-4-acryloyl-3,5-dimethylpiperazin-1-yl)-10-(2,6-difluorophenyl)-3-(methoxymethyl)-9-(trifluoromethyl)-2,3-dihydro-5H-[1,4]thiazino[2,3,4-ij]quinazolin-5-one]", "% CAF 10 uM @ 60 min": 60.6}
{"compound": "C=CC(=O)N1[C@H](C)CN(c2nc(=O)n3c4c(c(-c5ccc(F)c(Cl)c5)c(C(F)(F)F)cc24)SC[C@@H]3CN2CCN(C3CC3)CC2)C[C@@H]1C", "note": "[Example 1372, (S)-7-((3S,5R)-4-acryloyl-3,5-dimethylpiperazin-1-yl)-10-(3-chloro-4-fluorophenyl)-3-((4-cyclopropylpiperazin-1-yl)methyl)-9-(trifluoromethyl)-2,3-dihydro-5H-[1,4]thiazino[2,3,4-ij]quinazolin-5-one]", "% CAF 10 uM @ 60 min": 77.2}
{"compound": "C=CC(=O)N1[C@H](C)CN(c2nc(=O)n3c4c(c(-c5ccc(F)c(Cl)c5)c(C(F)(F)F)cc24)SC[C@@H]3CN2CCN(CC)CC2)C[C@@H]1C", "note": "[Example 1373, (S)-7-((3S,5R)-4-acryloyl-3,5-dimethylpiperazin-1-yl)-10-(3-chloro-4-fluorophenyl)-3-((4ethylpiperazin-1-yl)methyl)-9-(trifluoromethyl)-2,3-dihydro-5H-[1,4]thiazino[2,3,4-ij]quinazolin-5-one]", "% CAF 10 uM @ 60 min": 66.2}
{"compound": "C=CC(=O)N1[C@H](C)CN(c2nc(=O)n3c4c(c(-c5c(F)cc(F)cc5F)c(C(F)(F)F)cc24)SC[C@@H]3COC)C[C@@H]1C", "note": "[Example 1374, (S)-7-((3S,5R)-4-acryloyl-3,5-dimethylpiperazin-1-yl)-3-(methoxymethyl)-9-(trifluoromethyl)-10-(2,4,6-trifluorophenyl)-2,3-dihydro-5H-[1,4]thiazino[2,3,4-ij]quinazolin-5-one]", "% CAF 10 uM @ 60 min": 88.5}
{"compound": "C=CC(=O)N1CCN(c2nc(=O)n3c4c(c(-c5c(F)cccc5F)c(C(F)(F)F)cc24)SC[C@@H]3COC)CC1", "note": "[Example 1377, (S)-7-(4-acryloylpiperazin-1-yl)-10-(2,6-difluorophenyl)-3-(methoxymethyl)-9-(trifluoromethyl)-2,3-dihydro-5H-[1,4]thiazino[2,3,4-ij]quinazolin-5-one]", "% CAF 10 uM @ 60 min": 95.5}
{"compound": "C=CC(=O)N1CCN(c2nc(=O)n3c4c(c(-c5ccc(F)cc5)c(C(F)(F)F)cc24)SC[C@@H]3CN2CCN(CC)CC2)CC1", "note": "[Example 1378, (S)-7-(4-acryloylpiperazin-1-yl)-3-((4-ethylpiperazin-1-yl)methyl)-10-(4-fluorophenyl)-9-(trifluoromethyl)-2,3-dihydro-5H-[1,4]thiazino[2,3,4-ij]quinazolin-5-one]", "% CAF 10 uM @ 60 min": 78.9}
{"compound": "C=CC(=O)N1CCN(c2nc(=O)n3c4c(c(-c5c(F)cc(F)cc5F)c(C(F)(F)F)cc24)SC[C@@H]3COC)CC1", "note": "[Example 1379, (S)-7-(4-acryloylpiperazin-1-yl)-3-(methoxymethyl)-9-(trifluoromethyl)-10-(2,4,6-trifluorophenyl)-2,3-dihydro-5H-[1,4]thiazino[2,3,4-ij]quinazolin-5-one]", "% CAF 10 uM @ 60 min": 96.7}
{"compound": "C=CC(=O)N1C[C@H](C)N(c2nc(=O)n3c4c(c(-c5ccc(F)c(Cl)c5)c(C(F)(F)F)cc24)SC[C@@H]3CN2CCN(CC)CC2)C[C@H]1C", "note": "[Example 1380, (S)-7-((2S,5R)-4-acryloyl-2,5-dimethylpiperazin-1-yl)-10-(3-chloro-4-fluorophenyl)-3-((4-ethylpiperazin-1-yl)methyl)-9-(trifluoromethyl)-2,3-dihydro-5H-[1,4]thiazino[2,3,4-ij]quinazolin-5-one]", "% CAF 10 uM @ 60 min": 88.4}
{"compound": "C=CC(=O)N1CC2COCC(C1)N2c1nc(=O)n2c3c(c(-c4ccc(F)cc4)c(C(F)(F)F)cc13)SC[C@@H]2COC", "note": "[Example 1383, (3S)-7-(7-acryloyl-3-oxa-7,9-diazabicyclo[3.3.1]nonan-9-yl)-10-(4-fluorophenyl)-3-(methoxymethyl)-9-(trifluoromethyl)-2,3-dihydro-5H-[1,4]thiazino[2,3,4-ij]quinazolin-5-one]", "% CAF 10 uM @ 60 min": 66}
{"compound": "C=CC(=O)N1C2COCC1CN(c1nc(=O)n3c4c(c(-c5ccc(F)cc5)c(C(F)(F)F)cc14)SC[C@@H]3COC)C2", "note": "[Example 1384, (3S)-7-(9-acryloyl-3-oxa-7,9-diazabicyclo[3.3.1]nonan-7-yl)-10-(4-fluorophenyl)-3-(methoxymethyl)-9-(trifluoromethyl)-2,3-dihydro-5H-[1,4]thiazino[2,3,4-ij]quinazolin-5-one]", "% CAF 10 uM @ 60 min": 77.8}
{"compound": "C=CC(=O)N1[C@H](C)CN(c2nc(=O)n3c4c(c(-c5cccc6cnn(C)c56)c(C(F)(F)F)cc24)SC[C@@H]3CN2C[C@@H]3C[C@H]2CO3)C[C@@H]1C", "note": "[Example 1385, (3S)-3-(((1S,4S)-2-oxa-5-azabicyclo[2.2.1]heptan-5-yl)methyl)-7-((3S,5R)-4-acryloyl-3,5-dimethylpiperazin-1-yl)-10-(1-methyl-1H-indazol-7-yl)-9-(trifluoromethyl)-2,3-dihydro-5H-[1,4]thiazino[2,3,4-ij]quinazolin-5-one]", "% CAF 10 uM @ 60 min": 92.5}
{"compound": "C=CC(=O)N1[C@H](C)CN(c2nc(=O)n3c4c(c(-c5ccc(F)c(Cl)c5)c(C(F)(F)F)cc24)SC[C@@H](N2CCOCC2)C3)C[C@@H]1C", "note": "[Example 1386, (S)-8-((3S,5R)-4-acryloyl-3,5-dimethylpiperazin-1-yl)-11-(3-chloro-4-fluorophenyl)-3-morpholino-10-(trifluoromethyl)-3,4-dihydro-2H,6H-[1,4]thiazepino[2,3-4-ij]quinazolin-6-one]", "% CAF 10 uM @ 60 min": 71.6}
{"compound": "C=CC(=O)N1C[C@H](C)N(c2nc(=O)n3c4c(c(-c5ccc(F)c(Cl)c5)c(C(F)(F)F)cc24)SC[C@@H]3CN2CCN(C3CC3)CC2)C[C@H]1C", "note": "[Example 1387, (S)-7-((2S,5R)-4-acryloyl-2,5-dimethylpiperazin-1-yl)-10-(3-chloro-4-fluorophenyl)-3-((4-cyclopropylpiperazin-1-yl)methyl)-9-(trifluoromethyl)-2,3-dihydro-5H-[1,4]thiazino[2,3,4-ij]quinazolin-5-one]", "% CAF 10 uM @ 60 min": 71}
{"compound": "C=CC(=O)N1C2CCC1CN(c1nc(=O)n3c4c(c(-c5cc(Cl)c(F)cc5F)c(C(F)(F)F)cc14)SC[C@@H]3COC)C2", "note": "[Example 1394, (3S,10R)-7-((1R,5S)-8-acryloyl-3,8-diazabicyclo[3.2.1]octan-3-yl)-10-(5-chloro-2,4-difluorophenyl)-3-(methoxymethyl)-9-(trifluoromethyl)-2,3-dihydro-5H-[1,4]thiazino[2,3,4-ij]quinazolin-5-one]", "% CAF 10 uM @ 60 min": 93.5}
{"compound": "C=CC(=O)N1C2CCC1CN(c1nc(=O)n3c4c(c(-c5cc(Cl)c(F)cc5F)c(C(F)(F)F)cc14)SC[C@@H]3COC)C2", "note": "[Example 1395, (3S,10S)-7-((1R,5S)-8-acryloyl-3,8-diazabicyclo[3.2.1]octan-3-yl)-10-(5-chloro-2,4-difluorophenyl)-3-(methoxymethyl)-9-(trifluoromethyl)-2,3-dihydro-5H-[1,4]thiazino[2,3,4-ij]quinazolin-5-one]", "% CAF 10 uM @ 60 min": 17.3}
{"compound": "C=CC(=O)N1[C@H](C)CN(c2nc(=O)n3c4c(c(-c5ccc(F)cc5)c(C(F)(F)F)cc24)SC[C@@H](CO)C3)C[C@@H]1C", "note": "[Example 1398, (R)-8-((3S,5R)-4-acryloyl-3,5-dimethylpiperazin-1-yl)-11-(4-fluorophenyl)-3-(hydroxymethyl)-10-(trifluoromethyl)-3,4-dihydro-2H,6H-[1,4]thiazepino[2,3,4-ij]quinazolin-6-one]", "% CAF 10 uM @ 60 min": 44.2}
{"compound": "C=CC(=O)N1[C@H](C)CN(c2nc(=O)n3c4c(c(-c5ccc(F)cc5)c(C(F)(F)F)cc24)SC[C@H](CO)C3)C[C@@H]1C", "note": "[Example 1399, (S)-8-((3S,5R)-4-acryloyl-3,5-dimethylpiperazin-1-yl)-11-(4-fluorophenyl)-3-(hydroxymethyl)-10-(trifluoromethyl)-3,4-dihydro-2H,6H-[1,4]thiazepino[2,3,4-ij]quinazolin-6-one]", "% CAF 10 uM @ 60 min": 95.5}
{"compound": "C=CC(=O)N1[C@@H]2CC[C@H]1CN(c1nc(=O)n3c4c(c(-c5cc(Cl)c(F)cc5F)c(Cl)cc14)SC[C@@H]3CN1CCN(CC)CC1)C2", "note": "[Example 1400, (3S)-7-((1R,5S)-8-acryloyl-3,8-diazabicyclo[3.2.1]octan-3-yl)-9-chloro-10-(5-chloro-2,4-difluorophenyl)-3-((4-ethylpiperazin-1-yl)methyl)-2,3-dihydro-5H-[1,4]thiazino[2,3,4-ij]quinazolin-5-one]", "% CAF 10 uM @ 60 min": 43.7}
